In patent publication US9765105B2, “Macrolide compound” (Pulike Biological Engineering, Inc., priority 2013, dated 2017):

How the values were obtained:
[1] = tested on: Staphylococcus aureus CVCC26003; assay: in vitro susceptibility, MIC by mini broth dilution; format: cell-based; settings: strain CVCC26003
In short: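 MICs were determined by mini broth dilution under NCCLS standards in CAMHB, using revived S. aureus CVCC26003 subcultured 20 h at 35° C. Compounds were two-fold serially diluted in DMSO across 11 wells, with duplicate rows. Bacterial suspension was diluted 1:200 in medium before inoculation.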

[2] = tested on: Actinobacillus pleuropneumoniae CVCC262; assay: as above; format: cell-based; settings: strain CVCC262
In short: (§1)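 MICs determined by mini broth dilution per NCCLS (now CLSI) standards. Strains revived from −20° C, subcultured twice on solid medium at 35° C for 20 h; compounds two-fold serially diluted in DMSO over 11 gradients, duplicate rows, bacterial suspension diluted 1:200 in liquid medium.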

[3] = tested on: Haemophilus parasuis; assay: as above; format: cell-based
In short: as §1

[4] = tested on: Pasteurella multocida CVCC399; assay: as above; format: cell-based; settings: strain CVCC399
In short: as §1

[5] = tested on: Streptococcus equines CVCC556; assay: as above; format: cell-based; settings: strain CVCC556
In short: as §1

[6] = acute oral toxicity test, LD50 by improved karber method; settings: for LD50 at 7 days: both, Konmin, mouse, in vivo, po
[7] = tested on: Streptococcus pneumoniae CMCC 31203; assay: in vivo antibacterial test, survival of infected mice; design: species or system BALB/c mice; settings: mice infected i.p. with Streptococcus pneumoniae; 5 mg per kg subcutaneous for 3 consecutive days; observed until the seventh day

What does the source list for `CCCN1C[C@H](C)[C@@H](O)[C@](C)(O)[C@@H](CC)OC(=O)[C@H](C)[C@@H](O[C@H]2C[C@@](C)(OC)[C@@H](O)[C@H](C)O2)[C@H](C)[C@@H](O[C@@H]2O[C@H](C)C[C@H](N(C)C)[C@H]2O)[C@](C)(O)C[C@H]1C` [Gamithromycin, reference compound]?
MIC values, Staphylococcus aureus CVCC26003 [1]: 0.25 ug/mi; MIC values, Actinobacillus pleuropneumoniae CVCC262 [2]: 0.25 ug/mi; MIC values, Haemophilus parasuis [3]: 0.25 ug/mi; MIC values, Pasteurella multocida CVCC399 [4]: 0.25 ug/mi; MIC values, Streptococcus equines CVCC556 [5]: 0.5 ug/mi; LD50 ([6]; per os, gavaged once, in 0.2% sodium carboxymethylcellulose, observed 7 days): 2165.2 mg/kg

With `CCCCNC[C@]1(O)[C@H](C)OC(O[C@@H]2[C@@H](C)[C@@H](O[C@@H]3O[C@H](C)C[C@H](N(C)C)[C@H]3O)[C@](C)(O)C[C@@H](C)NC[C@@H](C)[C@H](O)[C@](C)(O)[C@H](CC)OC(=O)[C@@H]2C)C[C@@]1(C)OC` (stereo partly drawn) [syzx-2, (2R,3S,4R,5S,8R,10R,11R,12S,13S,14R)-13-[(2,6-dideoxy-3-C-methyl-3-O-methyl-4-C-[(butylamino)methyl]-α-L-ribopyranosyl)oxy]-2-ethyl-3,4,10-trihydroxy-3,5,8,10,12,14-hexamethyl-11-[[3,4,6-trideoxy-3-(dimethylamino)-β-D-xylo-hexopyranosy]oxy]-1-oxa-7-azacyclopentadecan-15-one] as the compound, how does the “Animal survival rate (surviving/total animals)” value [7] read?
Its value is 8/10.

What about the LD50 at 7 days [6] of the same compound?
The LD50 at 7 days was 2550 mg/kg.

For `CC[C@@H]1OC(=O)[C@H](C)[C@H](OC2C[C@@](C)(OC)[C@](O)(CN(CC)CC)[C@H](C)O2)[C@@H](C)[C@@H](O[C@@H]2O[C@H](C)C[C@H](N(C)C)[C@H]2O)[C@](C)(O)C[C@@H](C)NC[C@@H](C)[C@H](O)[C@]1(C)O` (stereo partly drawn) [syzx-3, (2R,3S,4R,5S,8R,10R,11R,12S,13S,14R)-13-[(2,6-dideoxy-3-C-methyl-3-O-methyl-4-C-[(diethylamino)methyl]-α-L-ribopyranosyl)oxy]-2-ethyl-3,4,10-trihydroxy-3,5,8,10,12,14-hexamethyl-11-[[3,4,6-trideoxy-3-(dimethylamino)-β-D-xylo-hexopyranosy]oxy]-1-oxa-7-azacyclopentadecan-15-one], which “Animal survival rate (surviving/total animals)” value [7] is on record?
The value was 8/10.

What about the LD50 at 7 days [6] of the same compound?
Its LD50 at 7 days is 2490 mg/kg.

For `CC[C@@H]1OC(=O)[C@H](C)[C@H](OC2C[C@@](C)(OC)[C@](O)(CN3CCOCC3)[C@H](C)O2)[C@@H](C)[C@@H](O[C@@H]2O[C@H](C)C[C@H](N(C)C)[C@H]2O)[C@](C)(O)C[C@@H](C)NC[C@@H](C)[C@H](O)[C@]1(C)O` (stereo partly drawn) [syzx-5, (2R,3S,4R,5S,8R,10R,11R,12S,13S,14R)-13-[(2,6-dideoxy-3-C-methyl-3-O-methyl-4-C-[(morpholinyl)methyl]-α-L-ribopyranosyl)oxy]-2-ethyl-3,4,10-trihydroxy-3,5,8,10,12,14-hexamethyl-11-[[3,4,6-trideoxy-3-(dimethylamino)-β-D-xylo-hexopyranosy]oxy]-1-oxa-7-azacyclopentadecan-15-one], which “Animal survival rate (surviving/total animals)” value [7] is on record?
Its value is 7/10.

What about the LD50 at 7 days [6] of the same compound?
Its LD50 at 7 days is 2730 mg/kg.

For `CC[C@@H]1OC(=O)[C@H](C)[C@H](OC2C[C@@](C)(OC)[C@](O)(CNC3CC3)[C@H](C)O2)[C@@H](C)[C@@H](O[C@@H]2O[C@H](C)C[C@H](N(C)C)[C@H]2O)[C@](C)(O)C[C@@H](C)NC[C@@H](C)[C@H](O)[C@]1(C)O` (stereo partly drawn) [syzx-6, (2R,3S,4R,5S,8R,10R,11R,12S,13S,14R)-13-[(2,6-dideoxy-3-C-methyl-3-O-methyl-4-C-[(cyclopropylamino)methyl]-α-L-ribopyranosyl)oxy]-2-ethyl-3,4,10-trihydroxy-3,5,8,10,12,14-hexamethyl-11-[[3,4,6-trideoxy-3-(dimethylamino)-β-D-xylo-hexopyranosy]oxy]-1-oxa-7-azacyclopentadecan-15-one], which “Animal survival rate (surviving/total animals)” value [7] is on record?
Its value is 8/10.

What about the LD50 at 7 days [6] of the same compound?
The LD50 at 7 days was 2610 mg/kg.

Which “Animal survival rate (surviving/total animals)” value [7] does the source give for `CC[C@@H]1OC(=O)[C@H](C)[C@H](OC2C[C@@](C)(OC)[C@](O)(CNC3CCCC3)[C@H](C)O2)[C@@H](C)[C@@H](O[C@@H]2O[C@H](C)C[C@H](N(C)C)[C@H]2O)[C@](C)(O)C[C@@H](C)NC[C@@H](C)[C@H](O)[C@]1(C)O` (stereo partly drawn) [syzx-30, (2R,3S,4R,5S,8R,10R,11R,12S,13S,14R)-13-[(2,6-dideoxy-3-C-methyl-3-O-methyl-4-C-[(cyclopentylamino)-methyl]-α-L-ribopyranosyl)oxy]-2-ethyl-3,4,10-trihydroxy-3,5,8,10,12,14-hexamethyl-11-[[3,4,6-trideoxy-3-(dimethylamino)-β-D-xylo-hexopyranosy]oxy]-1-oxa-7-azacyclopentadecan-15-one] here?
The value was 8/10.

With `CC[C@@H]1OC(=O)[C@H](C)[C@H](OC2C[C@@](C)(OC)[C@](O)(CNCc3cccc(OC)c3)[C@H](C)O2)[C@@H](C)[C@@H](O[C@@H]2O[C@H](C)C[C@H](N(C)C)[C@H]2O)[C@](C)(O)C[C@@H](C)NC[C@@H](C)[C@H](O)[C@]1(C)O` (stereo partly drawn) [syzx-35, (2R,3S,4R,5S,8R,10R,11R,12S,13S,14R)-13-[(2,6-dideoxy-3-C-methyl-3-O-methyl-4-C-[[3-methoxybenzyl-amino]-methyl]-α-L-ribopyranosyl)oxy]-2-ethyl-3,4,10-trihydroxy-3,5,8,10,12,14-hexamethyl-11-[[3,4,6-trideoxy-3-(dimethylamino)-β-D-xylo-hexopyranosy]oxy]-1-oxa-7-azacyclopentadecan-15-one] as the compound, how does the Animal survival rate [7] read?
The Animal survival rate was 70%.

And the “Animal survival rate (surviving/total animals)” value [7]?
The value was 7/10.

With `CCCCCNC[C@]1(O)[C@H](C)OC(O[C@@H]2[C@@H](C)[C@@H](O[C@@H]3O[C@H](C)C[C@H](N(C)C)[C@H]3O)[C@](C)(O)C[C@@H](C)NC[C@@H](C)[C@H](O)[C@](C)(O)[C@H](CC)OC(=O)[C@@H]2C)C[C@@]1(C)OC` (stereo partly drawn) [syzx-47, (2R,3S,4R,5S,8R,10R,11R,12S,13S,14R)-13-[(2,6-dideoxy-3-C-methyl-3-O-methyl-4-C-[[n-pentyl-amino]-methyl]-α-L-ribopyranosyl)oxy]-2-ethyl-3,4,10-trihydroxy-3,5,8,10,12,14-hexamethyl-11-[[3,4,6-trideoxy-3-(dimethylamino)-β-D-xylo-hexopyranosy]oxy]-1-oxa-7-azacyclopentadecan-15-one] as the compound, how does the “Animal survival rate (surviving/total animals)” value [7] read?
Its value is 9/10.

With `CC[C@@H]1OC(=O)[C@H](C)[C@H](OC2C[C@@](C)(OC)[C@](O)(CNCc3cnc(C)cn3)[C@H](C)O2)[C@@H](C)[C@@H](O[C@@H]2O[C@H](C)C[C@H](N(C)C)[C@H]2O)[C@](C)(O)C[C@@H](C)NC[C@@H](C)[C@H](O)[C@]1(C)O` (stereo partly drawn) [syzx-65, (2R,3S,4R,5S,8R,10R,11R,12S,13S,14R)-13-[(2,6-dideoxy-3-C-methyl-3-O-methyl-4-C-{[(5-methyl-pyrazin-2-yl-methyl)-amino]-methyl}-α-L-ribopyranosyl)oxy]-2-ethyl-3,4,10-trihydroxy-3,5,8,10,12,14-hexamethyl-11-[[3,4,6-trideoxy-3-(dimethylamino)-β-D-xylo-hexopyranosy]oxy]-1-oxa-7-azacyclopentadecan-15-one] as the compound, how does the “Animal survival rate (surviving/total animals)” value [7] read?
Its value is 9/10.

For `CC[C@@H]1OC(=O)[C@H](C)[C@H](OC2C[C@@](C)(OC)[C@](O)(CNCCCOC)[C@H](C)O2)[C@@H](C)[C@@H](O[C@@H]2O[C@H](C)C[C@H](N(C)C)[C@H]2O)[C@](C)(O)C[C@@H](C)NC[C@@H](C)[C@H](O)[C@]1(C)O` (stereo partly drawn) [syzx-66], which “Animal survival rate (surviving/total animals)” value [7] is on record?
Its value is 8/10.

For `CC[C@@H]1OC(=O)[C@H](C)[C@H](OC2C[C@@](C)(OC)[C@](O)(CNCC3CCCCC3)[C@H](C)O2)[C@@H](C)[C@@H](O[C@@H]2O[C@H](C)C[C@H](N(C)C)[C@H]2O)[C@](C)(O)C[C@@H](C)NC[C@@H](C)[C@H](O)[C@]1(C)O` (stereo partly drawn) [syzx-67], which “Animal survival rate (surviving/total animals)” value [7] is on record?
Its value is 8/10.

Which “MIC values, Staphylococcus aureus CVCC26003” value [1] does the source give for `CCCN1C[C@H](C)[C@@H](O)[C@](C)(O)[C@@H](CC)OC(=O)[C@H](C)[C@@H](O[C@H]2C[C@@](C)(OC)[C@](O)(Cn3ccnc3C)[C@H](C)O2)[C@H](C)[C@@H](O[C@@H]2O[C@H](C)C[C@H](N(C)C)[C@H]2O)[C@](C)(O)C[C@H]1C` [syzx-238] here?
Its value is 1 ug/mi.

And the “MIC values, Actinobacillus pleuropneumoniae CVCC262” value [2]?
The value was 1 ug/mi.

And the “MIC values, Haemophilus parasuis” value [3]?
Its value is 1 ug/mi.

And the “MIC values, Pasteurella multocida CVCC399” value [4]?
Its value is 4 ug/mi.

What about the “MIC values, Streptococcus equines CVCC556” value [5] of the same compound?
Its value is 0.25 ug/mi.

What does the source list for `CCCN1C[C@H](C)[C@@H](O)[C@](C)(O)[C@@H](CC)OC(=O)[C@H](C)[C@@H](O[C@H]2C[C@@](C)(OC)[C@](O)(CN(C)CCO)[C@H](C)O2)[C@H](C)[C@@H](O[C@@H]2O[C@H](C)C[C@H](N(C)C)[C@H]2O)[C@](C)(O)C[C@H]1C` [syzx-239]?
MIC values, Staphylococcus aureus CVCC26003 [1]: 4 ug/mi; MIC values, Actinobacillus pleuropneumoniae CVCC262 [2]: 4 ug/mi; MIC values, Haemophilus parasuis [3]: 2 ug/mi; MIC values, Pasteurella multocida CVCC399 [4]: 8 ug/mi; MIC values, Streptococcus equines CVCC556 [5]: 0.25 ug/mi

With “(2R,3S,4R,5S,8R,10R,11R,12S,13S,14R)-13-[(2,6-dideoxy-3-C-methyl-3-O-methyl-4-C-[(thienylformyloxymethyl-2-amino)-methyl]-α-L-ribopyranosyl)oxy]-2-ethyl-3,4,10-trihydroxy-3,5,8,10,12,14-hexamethyl-11-[[3,4,6-trideoxy-3-(dimethylamino)-β-D-xylo-hexopyranosy]oxy]-1-oxa-7-azacyclopentadecan-15-one [syzx-77]” as the compound, how does the “MIC values, Staphylococcus aureus CVCC26003” value [1] read?
Its value is 0.25 ug/mi.

And the “MIC values, Actinobacillus pleuropneumoniae CVCC262” value [2]?
The value was 16 ug/mi.

What about the “MIC values, Haemophilus parasuis” value [3] of the same compound?
The value was 0.25 ug/mi.

What about the “MIC values, Pasteurella multocida CVCC399” value [4] of the same compound?
The value was 0.5 ug/mi.

What about the “MIC values, Streptococcus equines CVCC556” value [5] of the same compound?
Its value is 0.5 ug/mi.
